Patent publication US20250163089A1, “Branched Molecules for Redox Flow Batteries” (XL Batteries, Inc., priority 2023, published 2025)

Legend:
[1] = Viscosity of the solution; type: physicochemical; conditions: at a concentration of […]
[2] = solvent not stated

N-(4-ferrocenylbutanoyl)-L-glutamate
viscosity [1]: 3.7 cP

O=C(O)CCC[c-]1cccc1.[Fe+2].c1cc[cH-]c1 [4-ferrocene butyric acid]
maximum concentration dissolved, after which solid precipitated from the solution [2]: 0.251 M
